Test results reported in patent publication US20140066394A1, “Substituted 6-(Benzylamino) Purine Riboside Derivatives, Use Thereof and Compositions Containing These Derivatives” (Biopatterns, S.R.O, priority 2009, published 2014).

Test system: neutrophils
Experiment: ANCA induced neutrophil apoptosis
Type: cell-based
Conditions: Homo sapiens, 10 hours, TNFα pre-treated, anti-PR3 and anti-MPO ANCA (FIG. 9), read-out: IC50 for overcoming the increase in apoptosis imposed by ANCA
Method: Neutrophils were cultured at 2×10^6 cells/ml for 10 h in RPMI1640 medium containing human serum and antibiotics and a range of concentrations of compound 10 in the absence or presence of ANCA. Apoptosis was determined by flow cytometry after DiOC6 staining.
ANCA are predominantly IgG autoantibodies directed against constituents of primary granules of neutrophils (PR3 and MPO). ANCA associated vasculitis is the most common primary systemic small-vessel vasculitis in adults. The common pathology of this disease is focal necrotizing lesions of blood vessels and may affect different vessels and organs. […] Neutrophils were cultured for 10 hours in RPMI1640 medium containing 2% human AB serum, 2 mM L-glutamine and antibiotics (100 U/ml penicillin, […] streptomycin) and their apoptosis determined by staining with Giemsa stain and observing an apoptotic morphology by light microscopy. […] The ability of compound 10 to inhibit ANCA-induced neutrophil inflammatory functions was also determined Neutrophils were cultured in RPMI1640 medium containing 2% human AB serum, 2 mM L-glutamine and antibiotics (100 U/ml penicillin, […] streptomycin). […] ANCA stimulated degranulation of neutrophils was assessed by release of myeloperoxidase in to the medium over a 30 minute period, with MPO measured by ELISA. […] HUVEC viability was determined by trypan blue staining and light microscopy.

## COc1cccc(CNc2nc(Cl)nc3c2ncn3C2OC(CO)C(O)C2O)c1O (stereo not shown) [Compound 10, 2-Chloro-6-(2-hydroxy-3-methoxybenzylamino)purine riboside]
  IC50: 4 µM
